Assay results taken from US5753715A, “2-disubstituted cyclohexenyl and cyclohexyl antimicrobial agents” (Ortho Pharmaceutical Corporation, priority 1995, dated 1998).
≈ marks a conversion by molar mass, not a printed value.

Tests used:
Kinase A and SpoOF = target: T1, Kinase A and SpoOF (Bacillus subtilis, UniProt P16497); experiment: Autophosphorylation of Kinase A and Transphosphorylation of SPoOF Assay; type: biochemical; details: inhibition of Kinase A autophosphorylation / SpoOF transphosphorylation, [32P]ATP, gel, phosphoimager
T1 sequence (P16497 1-606): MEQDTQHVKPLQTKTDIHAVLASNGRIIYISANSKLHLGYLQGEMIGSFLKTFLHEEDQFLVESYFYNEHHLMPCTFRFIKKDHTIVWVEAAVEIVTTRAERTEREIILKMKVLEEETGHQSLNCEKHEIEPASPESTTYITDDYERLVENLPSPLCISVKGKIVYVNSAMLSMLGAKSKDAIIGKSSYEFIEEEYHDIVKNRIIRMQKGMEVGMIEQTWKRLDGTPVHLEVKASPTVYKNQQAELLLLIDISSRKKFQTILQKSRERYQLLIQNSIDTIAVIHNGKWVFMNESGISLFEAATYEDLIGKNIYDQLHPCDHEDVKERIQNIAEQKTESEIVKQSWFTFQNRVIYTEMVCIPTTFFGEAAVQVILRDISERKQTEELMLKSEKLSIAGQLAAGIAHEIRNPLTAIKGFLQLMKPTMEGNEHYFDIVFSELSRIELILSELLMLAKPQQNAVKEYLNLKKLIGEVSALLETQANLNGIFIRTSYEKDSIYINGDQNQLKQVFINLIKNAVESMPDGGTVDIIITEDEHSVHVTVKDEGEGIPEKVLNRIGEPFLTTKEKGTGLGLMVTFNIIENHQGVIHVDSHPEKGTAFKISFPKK

E. coli oc2530 = experiment: MIC, microdilution broth method (NCCLS); type: cell-based; details: cation supplemented Mueller Hinton broth, 35° C., 16-20 hours; unit assumed
Description: (§1) The in vitro antimicrobial spectrum of the compounds of the present invention were determined by the microdilution broth method following the test method from the National Committee for […] (NCCLS ). The method is described in the NCCLS Document M7-A2, Vol. 10, No.8 "Methods for Dilution Antimicrobial Susceptibility Test for Bacteria that Grow Aerobically--Second Edition".
(§2) In this method two fold serial dilutions of drug in cation supplemented Mueller Hinton broth are added to wells in microdilution trays. The test organisms are prepared by adjusting the turbidity of actively growing broth cultures so that the final concentration of test organism after it is added to the wells is approximately 5×10^4 colony forming units per well delivered by the Steers replicating device.
(§3) Following inoculation of the microdilution trays, the trays are incubated at 35° C. for 16-20 hours and then read. […] The amount of growth in the wells containing the test compound is compared with the amount of growth in the growth-control wells used in each tray.

E. faecalis ACTCC 29212 = experiment: MIC, microdilution broth method (NCCLS); type: cell-based; details: cation supplemented Mueller Hinton broth, 35° C., 16-20 hours; unit assumed
Description: as §1, §2, §3

K. pneum. oc1943 = experiment: MIC, microdilution broth method (NCCLS); type: cell-based; details: cation supplemented Mueller Hinton broth, 35° C., 16-20 hours; unit assumed
Description: as §1, §2, §3

Ps. aerug. oc27853 = experiment: MIC, microdilution broth method (NCCLS); type: cell-based; details: cation supplemented Mueller Hinton broth, 35° C., 16-20 hours; unit assumed
Description: as §1, §2, §3

MRSA oc667 = experiment: MIC, microdilution broth method (NCCLS); type: cell-based; details: cation supplemented Mueller Hinton broth, 35° C., 16-20 hours; unit assumed
Description: as §1, §2, §3

S. aureus ATCC 29213 = experiment: MIC, microdilution broth method (NCCLS); type: cell-based; details: cation supplemented Mueller Hinton broth, 35° C., 16-20 hours; unit assumed
Description: as §1, §2, §3

C. albicans 10231 = experiment: MIC, microdilution broth method (NCCLS); type: cell-based; details: cation supplemented Mueller Hinton broth, 35° C., 16-20 hours; unit assumed
Description: as §1, §2, §3

C. tropicalis = experiment: MIC, microdilution broth method (NCCLS); type: cell-based; details: cation supplemented Mueller Hinton broth, 35° C., 16-20 hours; unit assumed
Description: as §1, §2, §3

E. faecium oc2993 = experiment: MIC, microdilution broth method (NCCLS); type: cell-based; details: cation supplemented Mueller Hinton broth, 35° C., 16-20 hours; unit assumed
Description: as §1, §2, §3

Ps. aerug. oc161 = experiment: MIC, microdilution broth method (NCCLS); type: cell-based; details: cation supplemented Mueller Hinton broth, 35° C., 16-20 hours; unit assumed
Description: as §1, §2, §3

MRSA oc2089 = experiment: MIC, microdilution broth method (NCCLS); type: cell-based; details: cation supplemented Mueller Hinton broth, 35° C., 16-20 hours; unit assumed
Description: as §1, §2, §3

A. niger 10578 = experiment: MIC, microdilution broth method (NCCLS); type: cell-based; details: cation supplemented Mueller Hinton broth, 35° C., 16-20 hours; unit assumed
Description: as §1, §2, §3

E. coli oc2605 = experiment: MIC, microdilution broth method (NCCLS); type: cell-based; details: cation supplemented Mueller Hinton broth, 35° C., 16-20 hours; unit assumed
Description: as §1, §2, §3

E. faecalis oc3041 = experiment: MIC, microdilution broth method (NCCLS); type: cell-based; details: cation supplemented Mueller Hinton broth, 35° C., 16-20 hours; unit assumed
Description: as §1, §2, §3

S. epi oc2603 = experiment: MIC, microdilution broth method (NCCLS); type: cell-based; design: unit not given here; details: cation supplemented Mueller Hinton broth, 35° C., 16-20 hours
Description: as §1, §2, §3

Row | IC50 (Kinase A and SpoOF) [mM] | IC min (Kinase A and SpoOF) [mM] | SMILES | also measured
1 | 257 | 125 | CCNCCc1ccc(NCCC2(Cc3ccccc3)C=CCCC2)cc1 (stereo not drawn) [Compound 10] | –
2 | 82.1 | 62.5 | CNCCCc1ccc(OCCC2(Cc3ccccc3)C=CCCC2)cc1 (stereo not drawn) [Compound 19] | –
3 | – | 500 | CNCCc1ccccc1OCCC1(Cc2ccccc2)C=CCCC1 (stereo not drawn) [Compound 36] | –
4 | 354 | 125 | O=C(O)CCc1ccc(OCCC2(c3ccc(F)cc3)C=CCCC2)cc1 (stereo not drawn) [Compound 12] | –
5 | 164 | 125 | CCCCC1(CCOc2ccc(CCCNC)cc2)C=CCCC1 (stereo not drawn) [Compound 32] | –
6 | 261 | 125 | NCCCc1ccc(OCCC2(Cc3ccccc3)C=CCCC2)cc1 (stereo not drawn) [Compound 18] | –
7 | 17.9 | 15.6 | N=C(N)NCCc1ccc(OCCC2(Cc3cccc(Cl)c3)C=CCCC2)cc1 (stereo not drawn) [Compound 45] | –
8 | 66.6 | – | COc1ccc(CC2(CCOc3cccc(CNC(=N)N)c3)C=CCCC2)cc1 (stereo not drawn) [Compound 56] | –
9 | 174 | – | NCCCc1ccc(OCCC2(Cc3ccc(Cl)cc3)C=CCCC2)cc1 (stereo not drawn) [Compound 52] | –
10 | 432 | 125 | CNCCCc1ccc(OCCC2(CCO)C=CCCC2)cc1 (stereo not drawn) [Compound 15] | –
11 | 468.4 | 125 | CNCCCc1ccc(OCCC2(C(C)C)C=CCCC2)cc1 (stereo not drawn) [Compound 35] | –
12 | 330 | – | NC(=O)c1ccc(OCCC2(Cc3cccc(Cl)c3)C=CCCC2)cc1 (stereo not drawn) [Compound 7] | –

More lines, now with the values behind:

Row | SMILES | IC50 (Kinase A and SpoOF) [mM] | IC min (Kinase A and SpoOF) [mM] | also measured
13 | CNCCCc1ccc(OCCC2(CCCc3ccccc3)C=CCCC2)cc1 (stereo not drawn) [Compound 31] | 91 | 62.5 | –
14 | CCCNCCCc1ccc(OCCC2(c3ccc(F)cc3)C=CCCC2)cc1 (stereo not drawn) [Compound 27] | 318 | 125 | –
15 | NCCCCc1ccc(OCCC2(Cc3ccccc3)C=CCCC2)cc1 (stereo not drawn) [Compound 11] | 353 | 125 | –
16 | COc1ccc(CC2(CCOc3ccc(CCNC(=N)N)cc3)C=CCCC2)cc1 (stereo not drawn) [Compound 47] | 21 | 15.6 | –
17 | C1=CC(CCOc2ccc(CCNCCN3CCCC3)cc2)(Cc2ccccc2)CCC1 (stereo not drawn) [Compound 1] | 210 | 62.5 | –
18 | NCCc1ccc(OCCC2(Cc3cccc(Cl)c3)C=CCCC2)cc1 (stereo not drawn) [Compound 39] | 61.5 | 31.25 | –
19 | NCCNCCc1ccc(OCCC2(Cc3cccc(Cl)c3)C=CCCC2)cc1 (stereo not drawn) [Compound 61] | 94.6 | 62.5 | –
20 | COc1ccc(CC2(CCOc3ccc(C(N)=O)cc3)C=CCCC2)cc1 (stereo not drawn) [Compound 51] | – | > 1000 | –
21 | NCCc1ccc(OCCC2(Cc3cc(Cl)cc(Cl)c3)C=CCCC2)cc1 (stereo not drawn) [Compound 59] | 46.1 | – | MIC E. coli oc2530 (E. coli oc2530): 16 µg/mL (≈ 39.6 µM); MIC E. faecalis ACTCC 29212 (E. faecalis ACTCC 29212): 8 µg/mL (≈ 19.8 µM); MIC K. pneum. oc1943 (K. pneum. oc1943): > 128 µg/mL; MIC Ps. aerug. oc27853 (Ps. aerug. oc27853): > 128 µg/mL; MIC MRSA oc667 (MRSA oc667): 8 µg/mL (≈ 19.8 µM); MIC S. aureus ATCC 29213 (S. aureus ATCC 29213): 8 µg/mL (≈ 19.8 µM); MIC C. albicans 10231 (C. albicans 10231): 8 µg/mL (≈ 19.8 µM); MIC C. tropicalis (C. tropicalis): 8 µg/mL (≈ 19.8 µM); MIC E. faecium oc2993 (E. faecium oc2993): 8 µg/mL (≈ 19.8 µM); MIC Ps. aerug. oc161 (Ps. aerug. oc161): > 128 µg/mL; MIC MRSA oc2089 (MRSA oc2089): 8 µg/mL (≈ 19.8 µM); MIC A. niger 10578 (A. niger 10578): 44 µg/mL (≈ 109 µM); MIC E. coli oc2605 (E. coli oc2605): ≥ 64 µg/mL; MIC E. faecalis oc3041 (E. faecalis oc3041): 8 µg/mL (≈ 19.8 µM); MIC S. epi oc2603 (S. epi oc2603): 8
22 | N=C(N)NCCCc1ccc(OCCC2(Cc3ccccc3)C=CCCC2)cc1 (stereo not drawn) [Compound 38] | 164.1 | 125 | –
23 | NCCc1ccc(OCCC2(Cc3ccc(Cl)cc3)C=CCCC2)cc1 (stereo not drawn) [Compound 33] | 339.5 | 125 | –
24 | C1=CC(CCOc2ccc(CCCNCCN3CCOCC3)cc2)(Cc2ccccc2)CCC1 (stereo not drawn) [Compound 21] | 728 | 500 | –
